Measured values reported in PubChem BioAssay (NCI).
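Tested at 5 concentrations; 48 h exposure; 96-well plates; endpoints linearly interpolated, else capped at highest concentration. Here, GI50 denotes the concentration required for 50% inhibition of growth. TGI denotes the concentration required for complete inhibition of growth.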

Legend:
Experiment in all cases: NCI-60 cell line screen, 48 h
OVCAR-5 ovarian = tested on: OVCAR-5 ovarian
SR leukemia = tested on: SR leukemia
SNB-75 CNS = tested on: SNB-75 CNS
OVCAR-8 ovarian = tested on: OVCAR-8 ovarian
SF-268 CNS = tested on: SF-268 CNS
SK-MEL-2 melanoma = tested on: SK-MEL-2 melanoma
SNB-19 CNS = tested on: SNB-19 CNS
UACC-257 melanoma = tested on: UACC-257 melanoma
HCT-116 colon = tested on: HCT-116 colon
LOX IMVI melanoma = tested on: LOX IMVI melanoma
A549 NSCLC = tested on: A549 NSCLC
ACHN renal = tested on: ACHN renal
MOLT-4 leukemia = tested on: MOLT-4 leukemia
EKVX NSCLC = tested on: EKVX NSCLC
DU-145 prostate = tested on: DU-145 prostate
BT-549 breast = tested on: BT-549 breast
NCI-H23 lung = tested on: NCI-H23 lung
TK-10 renal = tested on: TK-10 renal
HS 578T breast = tested on: HS 578T breast
SF-539 CNS = tested on: SF-539 CNS
M14 melanoma = tested on: M14 melanoma
SK-MEL-5 melanoma = tested on: SK-MEL-5 melanoma
MCF7 breast = tested on: MCF7 breast
RPMI-8226 leukemia = tested on: RPMI-8226 leukemia
OVCAR-3 ovarian = tested on: OVCAR-3 ovarian
SN12C renal = tested on: SN12C renal
CAKI-1 renal = tested on: CAKI-1 renal
SK-OV-3 ovarian = tested on: SK-OV-3 ovarian
UO-31 renal = tested on: UO-31 renal
NCI-H226 lung = tested on: NCI-H226 lung
SF-295 CNS = tested on: SF-295 CNS
MDA-MB-231 breast = tested on: MDA-MB-231 breast
KM12 colon = tested on: KM12 colon
NCI/ADR-RES ovarian = tested on: NCI/ADR-RES ovarian
HCC-2998 colon = tested on: HCC-2998 colon
UACC-62 melanoma = tested on: UACC-62 melanoma
OVCAR-4 ovarian = tested on: OVCAR-4 ovarian
MALME-3M melanoma = tested on: MALME-3M melanoma
HOP-92 NSCLC = tested on: HOP-92 NSCLC
NCI-H522 lung = tested on: NCI-H522 lung
HL-60(TB) leukemia = tested on: HL-60(TB) leukemia
PC-3 prostate = tested on: PC-3 prostate
SK-MEL-28 melanoma = tested on: SK-MEL-28 melanoma
U251 CNS = tested on: U251 CNS
786-0 renal = tested on: 786-0 renal
A498 renal = tested on: A498 renal
CCRF-CEM leukemia = tested on: CCRF-CEM leukemia

Question: Which GI50 (OVCAR-5 ovarian) does the source give for `Cc1cc2cn3c4ccc(O)cc4nc(N)c3c2cc1C` here?
Answer: 1.11 µM

Question: What about the TGI (OVCAR-5 ovarian) of the same molecule?
Answer: 11.5 µM

Question: And the GI50 (SR leukemia)?
Answer: < 0.0284 µM

Question: And the TGI (SR leukemia)?
Answer: 1.74 µM

Question: What about the GI50 (SNB-75 CNS) of the same molecule?
Answer: 0.211 µM

Question: And the TGI (SNB-75 CNS)?
Answer: 9.75 µM

Question: And the GI50 (OVCAR-8 ovarian)?
Answer: 0.18 µM

Question: And the TGI (OVCAR-8 ovarian)?
Answer: 1.49 µM

Question: What about the GI50 (SF-268 CNS) of the same molecule?
Answer: 0.197 µM

Question: And the TGI (SF-268 CNS)?
Answer: 5.42 µM

Question: And the GI50 (SK-MEL-2 melanoma)?
Answer: < 0.01 µM

Question: What about the TGI (SK-MEL-2 melanoma) of the same molecule?
Answer: 1.34 µM

Question: And the GI50 (SNB-19 CNS)?
Answer: 0.146 µM

Question: And the TGI (SNB-19 CNS)?
Answer: 18.6 µM

Question: What about the GI50 (UACC-257 melanoma) of the same molecule?
Answer: 1.11 µM

Question: What about the TGI (UACC-257 melanoma) of the same molecule?
Answer: 3.08 µM

Question: What about the GI50 (HCT-116 colon) of the same molecule?
Answer: < 0.01 µM

Question: What about the TGI (HCT-116 colon) of the same molecule?
Answer: 1.32 µM

Question: What about the GI50 (LOX IMVI melanoma) of the same molecule?
Answer: < 0.01 µM

Question: And the TGI (LOX IMVI melanoma)?
Answer: 1.58 µM

Question: And the GI50 (A549 NSCLC)?
Answer: 0.132 µM

Question: And the TGI (A549 NSCLC)?
Answer: 1.46 µM

Question: And the GI50 (ACHN renal)?
Answer: < 0.0307 µM

Question: And the TGI (ACHN renal)?
Answer: 1.88 µM

Question: And the GI50 (MOLT-4 leukemia)?
Answer: 0.0828 µM

Question: And the TGI (MOLT-4 leukemia)?
Answer: 2.48 µM

Question: And the GI50 (EKVX NSCLC)?
Answer: 0.794 µM

Question: What about the TGI (EKVX NSCLC) of the same molecule?
Answer: 20.3 µM

Question: What about the GI50 (DU-145 prostate) of the same molecule?
Answer: 0.0535 µM

Question: What about the TGI (DU-145 prostate) of the same molecule?
Answer: 1.63 µM

Question: What about the GI50 (BT-549 breast) of the same molecule?
Answer: 2.22 µM

Question: What about the TGI (BT-549 breast) of the same molecule?
Answer: 20.4 µM

Question: What about the GI50 (NCI-H23 lung) of the same molecule?
Answer: 0.266 µM

Question: What about the TGI (NCI-H23 lung) of the same molecule?
Answer: 5.09 µM

Question: What about the GI50 (TK-10 renal) of the same molecule?
Answer: 0.818 µM

Question: And the TGI (TK-10 renal)?
Answer: 2.76 µM

Question: And the GI50 (HS 578T breast)?
Answer: 0.17 µM

Question: What about the TGI (HS 578T breast) of the same molecule?
Answer: 11 µM

Question: What about the GI50 (SF-539 CNS) of the same molecule?
Answer: 0.221 µM

Question: What about the TGI (SF-539 CNS) of the same molecule?
Answer: 1.05 µM

Question: What about the GI50 (M14 melanoma) of the same molecule?
Answer: < 0.0192 µM

Question: And the TGI (M14 melanoma)?
Answer: 1.18 µM

Question: And the GI50 (SK-MEL-5 melanoma)?
Answer: < 0.01 µM

Question: What about the TGI (SK-MEL-5 melanoma) of the same molecule?
Answer: 0.137 µM

Question: And the GI50 (MCF7 breast)?
Answer: 0.429 µM

Question: And the TGI (MCF7 breast)?
Answer: 1.76 µM

Question: What about the GI50 (RPMI-8226 leukemia) of the same molecule?
Answer: 0.0713 µM

Question: And the TGI (RPMI-8226 leukemia)?
Answer: 2.01 µM

Question: What about the GI50 (OVCAR-3 ovarian) of the same molecule?
Answer: < 0.0176 µM

Question: What about the TGI (OVCAR-3 ovarian) of the same molecule?
Answer: 1.7 µM

Question: What about the GI50 (SN12C renal) of the same molecule?
Answer: 0.172 µM

Question: What about the TGI (SN12C renal) of the same molecule?
Answer: 1.89 µM

Question: What about the GI50 (CAKI-1 renal) of the same molecule?
Answer: 0.176 µM

Question: And the TGI (CAKI-1 renal)?
Answer: 5.13 µM

Question: And the GI50 (SK-OV-3 ovarian)?
Answer: 0.233 µM

Question: What about the TGI (SK-OV-3 ovarian) of the same molecule?
Answer: 5 µM

Question: What about the GI50 (UO-31 renal) of the same molecule?
Answer: 0.227 µM

Question: And the TGI (UO-31 renal)?
Answer: 3.26 µM

Question: What about the GI50 (NCI-H226 lung) of the same molecule?
Answer: 0.502 µM

Question: What about the TGI (NCI-H226 lung) of the same molecule?
Answer: 19.2 µM

Question: What about the GI50 (SF-295 CNS) of the same molecule?
Answer: 0.15 µM

Question: What about the TGI (SF-295 CNS) of the same molecule?
Answer: 1.28 µM

Question: And the GI50 (MDA-MB-231 breast)?
Answer: 0.35 µM

Question: What about the TGI (MDA-MB-231 breast) of the same molecule?
Answer: 1.69 µM

Question: What about the GI50 (KM12 colon) of the same molecule?
Answer: < 0.01 µM

Question: What about the TGI (KM12 colon) of the same molecule?
Answer: 2.45 µM

Question: And the GI50 (NCI/ADR-RES ovarian)?
Answer: < 0.0204 µM

Question: What about the TGI (NCI/ADR-RES ovarian) of the same molecule?
Answer: 0.498 µM

Question: And the GI50 (HCC-2998 colon)?
Answer: 0.539 µM

Question: What about the TGI (HCC-2998 colon) of the same molecule?
Answer: 3.78 µM

Question: And the GI50 (UACC-62 melanoma)?
Answer: < 0.01 µM

Question: And the TGI (UACC-62 melanoma)?
Answer: 1.31 µM

Question: And the GI50 (OVCAR-4 ovarian)?
Answer: 1.49 µM

Question: And the TGI (OVCAR-4 ovarian)?
Answer: 14.4 µM

Question: What about the GI50 (MALME-3M melanoma) of the same molecule?
Answer: 2.18 µM

Question: What about the TGI (MALME-3M melanoma) of the same molecule?
Answer: 26.7 µM

Question: And the GI50 (HOP-92 NSCLC)?
Answer: 4.89 µM

Question: What about the TGI (HOP-92 NSCLC) of the same molecule?
Answer: 22.3 µM

Question: What about the GI50 (NCI-H522 lung) of the same molecule?
Answer: 0.0175 µM

Question: And the TGI (NCI-H522 lung)?
Answer: 0.293 µM

Question: And the GI50 (HL-60(TB) leukemia)?
Answer: 0.0331 µM

Question: And the TGI (HL-60(TB) leukemia)?
Answer: 1.21 µM

Question: And the GI50 (PC-3 prostate)?
Answer: 0.127 µM

Question: What about the TGI (PC-3 prostate) of the same molecule?
Answer: 5.85 µM

Question: And the GI50 (SK-MEL-28 melanoma)?
Answer: 0.0961 µM

Question: And the TGI (SK-MEL-28 melanoma)?
Answer: 2.1 µM

Question: And the GI50 (U251 CNS)?
Answer: < 0.01 µM

Question: What about the TGI (U251 CNS) of the same molecule?
Answer: 1.39 µM

Question: What about the GI50 (786-0 renal) of the same molecule?
Answer: 0.0541 µM

Question: What about the TGI (786-0 renal) of the same molecule?
Answer: 1.7 µM

Question: And the GI50 (A498 renal)?
Answer: 0.289 µM

Question: And the TGI (A498 renal)?
Answer: 22.7 µM

Question: What about the GI50 (CCRF-CEM leukemia) of the same molecule?
Answer: 0.0163 µM

Question: What about the TGI (CCRF-CEM leukemia) of the same molecule?
Answer: 2.13 µM
